One experiment addresses SHP2 (Homo sapiens (Human), UniProt Q06124). The experiment in a line: SHP2 Biochemical Assay (DiFMUP conversion, pIRS1-activated). The following applies: Table 19; head prints unit as "-M". In a few lines: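 Human SHP2 (10 pM) pre-incubated 30 min with compound and […] pIRS1 activating peptide, then 50 μM DiFMUP added; buffer 25 mM Bis-Tris propane pH 7.0, 150 mM NaCl, 5% DMSO. Fluorescence rate (ex 360/em 450 nm) over 30 min; IC50 by four-parameter fit, averaged across experiments.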

The subject of experiment [1] is pERK (phospho-p44/42 ERK) in HCC827 cells. The experiment in a line: Cellular pERK Inhibition Assay, Method A (In-Cell Western). Type of experiment: cell-based. The settings on record: Table 19, head prints unit as "-M", read-out: pERK (IC50) Method A. In a few lines:
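HCC827 cells in RPMI/10% FBS were treated with compounds in serum-free medium (0.2% DMSO final) at 37 °C for the indicated time, in quadruplicate. Fixed cells were immunostained for phospho-p44/42 ERK and read by infrared imaging. Blank-subtracted signal was expressed as % of DMSO control; IC50 from four-parameter logistic fit, averaged across experiments.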

Data on 23 compounds can be found in patent US12037345B2, “Heterobicyclic compounds for inhibiting the activity of SHP2” (TAIHO PHARMACEUTICAL CO., LTD., priority 2018, dated 2024).

Read-outs that look alike come from different tables or passages of the source.

Chain of SHP2 (Q06124 whole entry): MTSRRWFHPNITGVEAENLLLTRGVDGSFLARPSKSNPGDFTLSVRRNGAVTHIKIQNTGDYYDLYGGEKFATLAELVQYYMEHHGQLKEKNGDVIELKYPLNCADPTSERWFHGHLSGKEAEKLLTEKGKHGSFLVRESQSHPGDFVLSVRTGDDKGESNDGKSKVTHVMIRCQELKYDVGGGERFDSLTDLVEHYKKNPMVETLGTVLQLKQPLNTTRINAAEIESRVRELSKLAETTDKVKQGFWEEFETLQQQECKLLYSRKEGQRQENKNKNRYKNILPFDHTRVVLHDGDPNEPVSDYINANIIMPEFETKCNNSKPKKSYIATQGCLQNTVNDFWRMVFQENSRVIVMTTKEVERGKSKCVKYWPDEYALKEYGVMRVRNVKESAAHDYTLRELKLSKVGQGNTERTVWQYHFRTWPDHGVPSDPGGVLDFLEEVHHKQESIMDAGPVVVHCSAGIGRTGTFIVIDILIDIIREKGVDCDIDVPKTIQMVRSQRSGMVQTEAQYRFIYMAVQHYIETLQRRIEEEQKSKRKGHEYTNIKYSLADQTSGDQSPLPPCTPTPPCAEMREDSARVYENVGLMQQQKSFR

In the case of `Cn1cc2c(Cl)c(-c3c[nH]c4nc(N5C[C@@H](N)[C@@H](F)C5)n(C)c(=O)c34)ccc2n1` [Example 50, 2-((3R,4S)-3-amino-4-fluoropyrrolidin-1-yl)-5-(4-chloro-2-methyl-2H-indazol-5-yl)-3-methyl-3,7-dihydro-4H-pyrrolo[2,3-d]pyrimidin-4-one], the IC50 against SHP2 is 250 nM; in experiment [1] (Homo sapiens), 4700 nM.

For `Cn1cc2c(Cl)c(-c3c[nH]c4nc(N5C[C@H](N)[C@@H](F)C5)n(C)c(=O)c34)ccc2n1` [Example 52, 2-((3S,4S)-3-amino-4-fluoropyrrolidin-1-yl)-5-(4-chloro-2-methyl-2H-indazol-5-yl)-3-methyl-3,7-dihydro-4H-pyrrolo[2,3-d]pyrimidin-4-one], the IC50 on SHP2 came to 180 nM; in experiment [1] (Homo sapiens) it was 1900 nM.

In the case of `Cn1cc2c(Cl)c(-c3c[nH]c4nc(N5CC(N)C(F)(F)C5)n(C)c(=O)c34)ccc2n1` (stereo not shown) [Example 53, 2-(4-amino-3,3-difluoropyrrolidin-1-yl)-5-(4-chloro-2-methyl-2H-indazol-5-yl)-3-methyl-3,7-dihydro-4H-pyrrolo[2,3-d]pyrimidin-4-one], the IC50 against SHP2 is 330 nM; in experiment [1] (Homo sapiens), 3100 nM.

For the compound `Cn1cc2c(Cl)c(-c3c[nH]c4nc(N5CC[C@](C)(N)C5)n(C)c(=O)c34)ccc2n1` [Example 54, (S)-2-(3-amino-3-methylpyrrolidin-1-yl)-5-(4-chloro-2-methyl-2H-indazol-5-yl)-3-methyl-3,7-dihydro-4H-pyrrolo[2,3-d]pyrimidin-4-one], the concentration for half-maximal inhibition (IC50) on SHP2 is 110 nM; in experiment [1] (Homo sapiens), 1800 nM.

As to `Cn1cc2c(Cl)c(-c3c[nH]c4nc(N5CC[C@@](C)(N)C5)n(C)c(=O)c34)ccc2n1` [Example 55, (R)-2-(3-amino-3-methylpyrrolidin-1-yl)-5-(4-chloro-2-methyl-2H-indazol-5-yl)-3-methyl-3,7-dihydro-4H-pyrrolo[2,3-d]pyrimidin-4-one], the figures for the IC50 (at SHP2; in experiment [1] (Homo sapiens)) were 74 nM and 1100 nM, respectively.

For the compound `C[C@@H]1CN(c2nc3[nH]cc(-c4ccc5nn(C)cc5c4Cl)c3c(=O)n2C)C[C@@H]1N` [Example 56, 2-((3R,4R)-3-amino-4-methylpyrrolidin-1-yl)-5-(4-chloro-2-methyl-2H-indazol-5-yl)-3-methyl-3,7-dihydro-4H-pyrrolo[2,3-d]pyrimidin-4-one], the IC50 was 73 nM on SHP2 and 1100 nM in experiment [1] (Homo sapiens).

As for `C[C@H]1CN(c2nc3[nH]cc(-c4ccc5nn(C)cc5c4Cl)c3c(=O)n2C)C[C@@H]1N` [Example 57, 2-((3R,4S)-3-amino-4-methylpyrrolidin-1-yl)-5-(4-chloro-2-methyl-2H-indazol-5-yl)-3-methyl-3,7-dihydro-4H-pyrrolo[2,3-d]pyrimidin-4-one], the figures for the IC50 (on SHP2; in experiment [1] (Homo sapiens)) were 120 nM and 2900 nM, respectively.

With `Cn1cc2c(Cl)c(-c3c[nH]c4nc(N5CCC(N)(CO)C5)n(C)c(=O)c34)ccc2n1` (stereo not shown) [Example 58, 2-(3-amino-3-(hydroxymethyl)pyrrolidin-1-yl)-5-(4-chloro-2-methyl-2H-indazol-5-yl)-3-methyl-3,7-dihydro-4H-pyrrolo[2,3-d]pyrimidin-4-one], the results for the IC50 (against SHP2; in experiment [1] (Homo sapiens)) were 99 nM and > 10000 nM, respectively.

On to `C[C@@H]1OCC2(CCN(c3nc4[nH]cc(-c5ccc6nn(C)cc6c5Cl)c4c(=O)n3C)CC2)[C@@H]1N` [Example 59, 2-((3S,4S)-4-amino-3-methyl-2-oxa-8-azaspiro[4.5]decan-8-yl)-5-(4-chloro-2-methyl-2H-indazol-5-yl)-3-methyl-3,7-dihydro-4H-pyrrolo[2,3-d]pyrimidin-4-one], for which the figures for the half-maximal inhibitory concentration (IC50) (against SHP2; in experiment [1] (Homo sapiens)) were 5.5 nM and 48 nM, respectively.

As to `Cn1cc2c(Cl)c(-c3c[nH]c4nc(N5CC[C@H](CN)C5)n(C)c(=O)c34)ccc2n1` [Example 60, (R)-2-(3-(aminomethyl)pyrrolidin-1-yl)-5-(4-chloro-2-methyl-2H-indazol-5-yl)-3-methyl-3,7-dihydro-4H-pyrrolo[2,3-d]pyrimidin-4-one], the figures for the IC50 (against SHP2; in experiment [1] (Homo sapiens)) were 82 nM and 3800 nM, respectively.

Take `Cn1cc2c(Cl)c(-c3c[nH]c4nc(N5CC6CC6(N)C5)n(C)c(=O)c34)ccc2n1` (stereo not shown) [Example 61, 2-(1-amino-3-azabicyclo[3.1.0]hexan-3-yl)-5-(4-chloro-2-methyl-2H-indazol-5-yl)-3-methyl-3,7-dihydro-4H-pyrrolo[2,3-d]pyrimidin-4-one]: the IC50 against SHP2 was 98 nM; in experiment [1] (Homo sapiens), 1800 nM.

For `Cn1cc2c(Cl)c(-c3c[nH]c4nc(N5CC6C(N)C6C5)n(C)c(=O)c34)ccc2n1` (stereo not shown) [Example 62, 2-(6-amino-3-azabicyclo[3.1.0]hexan-3-yl)-5-(4-chloro-2-methyl-2H-indazol-5-yl)-3-methyl-3,7-dihydro-4H-pyrrolo[2,3-d]pyrimidin-4-one], the values for the IC50 (on SHP2; in experiment [1] (Homo sapiens)) were 23 nM and 360 nM, respectively.

As to `Cn1cc2c(Cl)c(-c3c[nH]c4nc(N5CC[C@@H](CN)C5)n(C)c(=O)c34)ccc2n1` [Example 63, (S)-2-(3-(aminomethyl)pyrrolidin-1-yl)-5-(4-chloro-2-methyl-2H-indazol-5-yl)-3-methyl-3,7-dihydro-4H-pyrrolo[2,3-d]pyrimidin-4-one], the values for the IC50 (against SHP2; in experiment [1] (Homo sapiens)) were 110 nM and 4300 nM, respectively.

Turning to `COC1(CN)CCN(c2nc3[nH]cc(-c4ccc5nn(C)cc5c4Cl)c3c(=O)n2C)CC1` [Example 64, 2-(4-(aminomethyl)-4-methoxypiperidin-1-yl)-5-(4-chloro-2-methyl-2H-indazol-5-yl)-3-methyl-3,7-dihydro-4H-pyrrolo[2,3-d]pyrimidin-4-one], the figures for the IC50 (at SHP2; in experiment [1] (Homo sapiens)) were 42 nM and 1500 nM, respectively.

For `Cn1cc2c(Cl)c(-c3c[nH]c4nc(N5CCC(F)(CN)CC5)n(C)c(=O)c34)ccc2n1` [Example 65, 2-(4-(aminomethyl)-4-fluoropiperidin-1-yl)-5-(4-chloro-2-methyl-2H-indazol-5-yl)-3-methyl-3,7-dihydro-4H-pyrrolo[2,3-d]pyrimidin-4-one], the IC50 at SHP2 was determined as 33 nM; in experiment [1] (Homo sapiens), 430 nM.

Consider `CCn1cc2c(Cl)c(-c3c[nH]c4nc(N5C6CCCC5CNC6)n(C)c(=O)c34)ccc2n1` [Example 66, 2-(3,9-diazabicyclo[3.3.1]nonan-9-yl)-5-(4-chloro-2-ethyl-2H-indazol-5-yl)-3-methyl-3,7-dihydro-4H-pyrrolo[2,3-d]pyrimidin-4-one], for which the IC50 was found to be 8.2 nM at SHP2 and 82 nM in experiment [1] (Homo sapiens).

Take `Cn1cc2cc(-c3c[nH]c4nc(N5[C@@H]6CC[C@H]5C[C@@H](N)C6)n(C)c(=O)c34)ccc2n1` [Example 67, 2-(endo-3-amino-8-azabicyclo[3.2.1]octan-8-yl)-3-methyl-5-(2-methyl-2H-indazol-5-yl)-3,7-dihydro-4H-pyrrolo[2,3-d]pyrimidin-4-one]: the IC50 was determined as 340 nM on SHP2 and 3400 nM in experiment [1] (Homo sapiens).

With `Cc1nc2ccc(-c3c[nH]c4nc(N5[C@@H]6CC[C@H]5C[C@@H](N)C6)n(C)c(=O)c34)c(Cl)c2o1` [Example 68, 2-(endo-3-amino-8-azabicyclo[3.2.1]octan-8-yl)-5-(7-chloro-2-methylbenzo[d]oxazol-6-yl)-3-methyl-3,7-dihydro-4H-pyrrolo[2,3-d]pyrimidin-4-one], the values for the IC50 (at SHP2; in experiment [1] (Homo sapiens)) were 41 nM and 670 nM, respectively.

For the compound `CCc1nc2ccc(-c3c[nH]c4nc(N5[C@@H]6CC[C@H]5C[C@@H](N)C6)n(C)c(=O)c34)c(Cl)c2o1` [Example 69, 2-(endo-3-amino-8-azabicyclo[3.2.1]octan-8-yl)-5-(7-chloro-2-ethylbenzo[d]oxazol-6-yl)-3-methyl-3,7-dihydro-4H-pyrrolo[2,3-d]pyrimidin-4-one], the IC50 against SHP2 was found to be 120 nM; in experiment [1] (Homo sapiens), 3000 nM.

As for `Cn1cc2c(F)c(-c3c[nH]c4nc(N5[C@@H]6CC[C@H]5C[C@@H](N)C6)n(C)c(=O)c34)ccc2n1` [Example 70, 2-(endo-3-amino-8-azabicyclo[3.2.1]octan-8-yl)-5-(4-fluoro-2-methyl-2H-indazol-5-yl)-3-methyl-3,7-dihydro-4H-pyrrolo[2,3-d]pyrimidin-4-one], the IC50 against SHP2 was found to be 29 nM; in experiment [1] (Homo sapiens), 190 nM.

As for `Cn1c(N2C3CCC2CC(N)C3)nc2[nH]cc(-c3cc4nnn(C)c4c(F)c3F)c2c1=O` (stereo not drawn) [Example 71, 2-(endo-3-amino-8-azabicyclo[3.2.1]octan-8-yl)-5-(6,7-difluoro-1-methyl-1H-benzo[d][1,2,3]triazol-5-yl)-3-methyl-3,7-dihydro-4H-pyrrolo[2,3-d]pyrimidin-4-one], the figures for the IC50 (at SHP2; in experiment [1]) were 260 nM and 5000 nM, respectively.

Take `Cn1cc2cc(-c3c[nH]c4nc(N5[C@@H]6CC[C@H]5C[C@@H](N)C6)n(C)c(=O)c34)c(F)cc2n1` [Example 72, 2-(endo-3-amino-8-azabicyclo[3.2.1]octan-8-yl)-5-(6-fluoro-2-methyl-2H-indazol-5-yl)-3-methyl-3,7-dihydro-4H-pyrrolo[2,3-d]pyrimidin-4-one]: the half-maximal inhibitory concentration (IC50) on SHP2 came out at 99 nM; in experiment [1] (Homo sapiens), 1900 nM.

Consider `COc1c(-c2c[nH]c3nc(N4C5CCC4CC(N)C5)n(C)c(=O)c23)ccc2nn(C)cc12` (stereo not drawn) [Example 73, 2-(endo-3-amino-8-azabicyclo[3.2.1]octan-8-yl)-5-(4-methoxy-2-methyl-2H-indazol-5-yl)-3-methyl-3,7-dihydro-4H-pyrrolo[2,3-d]pyrimidin-4-one], for which the IC50 against SHP2 was 870 nM; in experiment [1], > 10000 nM.

For orientation: IC50 means the concentration needed to halve the response being measured.
